Measurements as given in ChEMBL document CHEMBL1201862, “PubChem BioAssay data set” (2004).
Activity calls are given as the source filed them.

Tests used:
[1] = molecular target: FAD-linked sulfhydryl oxidase ALR (Homo sapiens, UniProt P55789); test: inhibitors of human ALR sulfhydryl oxidase, dose response, biochemical, H2O2 detection, luminescence, cherry-pick (AID 493248)
[2] = molecular target: T1, RNA-binding protein pos-1 (Caenorhabditis elegans, UniProt G5EF15); test: inhibitors of POS-1/mex-3 RNA binding, dose response, biochemical, fluorescence polarization (AID 1964);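 note: purified POS-1 fused to maltose binding protein made in E. coli; potency of compounds blocking POS-1 binding to fluorescent RNA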
T1 sequence (G5EF15 whole entry): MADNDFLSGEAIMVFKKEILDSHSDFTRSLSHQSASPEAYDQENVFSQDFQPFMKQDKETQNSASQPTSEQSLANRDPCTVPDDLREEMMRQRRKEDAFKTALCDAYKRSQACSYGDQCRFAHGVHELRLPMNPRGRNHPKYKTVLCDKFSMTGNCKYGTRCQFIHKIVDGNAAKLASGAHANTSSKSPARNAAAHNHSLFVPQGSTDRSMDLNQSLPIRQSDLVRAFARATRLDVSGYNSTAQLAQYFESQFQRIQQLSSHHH

[3] = molecular target: T2, Zinc finger protein mex-5 (Caenorhabditis elegans, UniProt Q9XUB2); test: MEX-5/TCR-2 RNA interaction inhibitors, dose response, biochemical, C. elegans, fluorescence polarization (AID 1960)
T2 sequence (Q9XUB2 whole entry): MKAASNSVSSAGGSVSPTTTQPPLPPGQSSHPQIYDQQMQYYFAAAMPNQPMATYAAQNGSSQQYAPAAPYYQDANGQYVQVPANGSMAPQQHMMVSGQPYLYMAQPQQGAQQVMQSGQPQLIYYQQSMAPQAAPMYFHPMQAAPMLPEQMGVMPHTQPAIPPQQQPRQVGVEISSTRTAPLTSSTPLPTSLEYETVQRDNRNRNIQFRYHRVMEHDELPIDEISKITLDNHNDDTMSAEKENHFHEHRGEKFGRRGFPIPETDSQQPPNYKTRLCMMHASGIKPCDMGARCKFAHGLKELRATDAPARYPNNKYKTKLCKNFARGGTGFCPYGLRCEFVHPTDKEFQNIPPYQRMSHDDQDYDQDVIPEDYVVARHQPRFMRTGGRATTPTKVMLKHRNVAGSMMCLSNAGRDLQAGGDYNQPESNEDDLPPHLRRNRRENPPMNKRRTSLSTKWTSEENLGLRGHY

[4] = molecular target: T3, Polyadenylate-binding protein 1 (Homo sapiens, UniProt P11940); test: PABP1 MLLE–PAM2 interaction inhibitors, dose response, miRNA deadenylation inhibitor project, biochemical, fluorescence polarization, Cy5-PAM2 peptide, secondary (AID 602260); assay type: functional; conditions: read-out: IC50_Mean
[5] = molecular target: T3, Polyadenylate-binding protein 1; test: PABP1 MLLE–PAM2 binding inhibitor potency, dose response, biochemical, fluorescence polarization, FITC-PAM2 peptide (AID 602259); assay type: functional; conditions: read-out: IC50_Mean
Leucine aminopeptidase = molecular target: T4, Leucine aminopeptidase (Plasmodium falciparum 3D7, UniProt Q8IL11); test: P. falciparum M17LAP inhibitors, primary screen, biochemical, fluorogenic H-Leu-NHMec substrate, 1536-well (AID 1619); assay type: functional
T4 sequence (Q8IL11 whole entry): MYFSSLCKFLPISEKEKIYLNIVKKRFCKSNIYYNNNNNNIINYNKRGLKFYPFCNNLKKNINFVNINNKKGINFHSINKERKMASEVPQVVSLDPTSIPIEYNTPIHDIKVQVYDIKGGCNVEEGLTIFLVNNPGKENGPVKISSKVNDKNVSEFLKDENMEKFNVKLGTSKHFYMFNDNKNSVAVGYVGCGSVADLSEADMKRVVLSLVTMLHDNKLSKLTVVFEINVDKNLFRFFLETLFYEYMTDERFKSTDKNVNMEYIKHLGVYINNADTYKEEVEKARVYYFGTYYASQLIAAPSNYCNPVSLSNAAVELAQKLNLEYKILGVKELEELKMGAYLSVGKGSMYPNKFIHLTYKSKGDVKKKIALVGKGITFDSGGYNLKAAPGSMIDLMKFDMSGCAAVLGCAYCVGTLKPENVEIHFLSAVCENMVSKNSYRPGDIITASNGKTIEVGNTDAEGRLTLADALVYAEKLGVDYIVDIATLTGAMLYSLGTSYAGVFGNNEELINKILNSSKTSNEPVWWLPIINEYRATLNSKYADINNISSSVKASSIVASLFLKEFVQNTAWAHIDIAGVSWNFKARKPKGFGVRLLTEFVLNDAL

BJ [6] = test: cytotoxicity toward BJ-TERT fibroblasts, dose response, cell-based, RAS-independent, luminescence (AID 1933); assay type: functional; conditions: Homo sapiens
BJ [7] = test: cells; assay type: functional, cell-based; conditions: Homo sapiens
BJ [8] = test: cytotoxicity toward BJ-TERT-LT-ST fibroblasts, dose response, cell-based, RAS-independent, luminescence (AID 1935); assay type: functional; conditions: Homo sapiens;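 note: BJ fibroblasts immortalized with TERT plus LT and ST oncogenes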
[9] = cytotoxicity toward DRD oncogenic fibroblasts, dose response, cell-based, non-viral oncogenic, luminescence (AID 1934); assay type: functional; conditions: Homo sapiens
cells = assay type: functional
[10] = Luminescence Cell-Based Dose Response HTS to Identify Activators of Luciferase Translation or Activity in H4 […] Cells. [Related pubchem assays: 1829 (Project Summary), 1814 (Primary HTS)]; assay type: functional
H4 = test: Luminescence Cell-Based Dose Response HTS to Identify Activators of 5'UTR Stem-Loop Driven Prion Protein mRNA Translation in H4 Neuroglioblastoma Cells. [Related pubchem assays: 1829 (Project Summary), 1814 (Primary HTS)]; assay type: functional; conditions: Homo sapiens
[11] = molecular target: Induced myeloid leukemia cell differentiation protein Mcl-1 (Homo sapiens, UniProt Q07820); assay type: functional
[12] = molecular target: T5, Corticotropin-releasing factor receptor 2/Corticotropin-releasing factor-binding protein (Homo sapiens, UniProt P24387+Q13324); test: activators of CRF receptor 2 with binding protein – uHTS hits, confirmation (AID 602473); assay type: functional; conditions: read-out: EC50_Mean
T5 sequence (Q13324 whole entry): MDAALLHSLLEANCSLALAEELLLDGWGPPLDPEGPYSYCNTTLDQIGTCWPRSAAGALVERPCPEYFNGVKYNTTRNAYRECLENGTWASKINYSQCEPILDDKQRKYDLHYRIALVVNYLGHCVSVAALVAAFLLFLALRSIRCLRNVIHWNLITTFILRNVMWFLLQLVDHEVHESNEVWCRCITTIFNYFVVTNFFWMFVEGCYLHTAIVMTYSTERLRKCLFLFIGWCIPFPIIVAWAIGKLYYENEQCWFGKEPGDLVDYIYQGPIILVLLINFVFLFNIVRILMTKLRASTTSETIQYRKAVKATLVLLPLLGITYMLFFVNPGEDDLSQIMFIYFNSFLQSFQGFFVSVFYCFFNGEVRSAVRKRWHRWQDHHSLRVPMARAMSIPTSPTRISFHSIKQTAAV
T5 sequence (P24387 whole entry): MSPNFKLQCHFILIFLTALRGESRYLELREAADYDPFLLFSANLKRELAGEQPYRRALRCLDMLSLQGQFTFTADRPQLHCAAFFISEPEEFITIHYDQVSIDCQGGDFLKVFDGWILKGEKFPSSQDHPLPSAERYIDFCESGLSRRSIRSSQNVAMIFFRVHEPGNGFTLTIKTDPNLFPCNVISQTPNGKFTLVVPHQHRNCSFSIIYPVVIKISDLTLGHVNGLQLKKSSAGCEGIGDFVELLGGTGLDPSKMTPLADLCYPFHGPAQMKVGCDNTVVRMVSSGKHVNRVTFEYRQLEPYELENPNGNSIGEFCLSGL

[13] = molecular target: T6, Rac GTPase-activating protein 1 (Homo sapiens, UniProt Q9H0H5); test: MgcRacGAP GTPase-activating activity inhibitors, confirmation, biochemical, ADP Hunter fluorescence, primary and confirmatory (AID 624330); assay type: functional
T6 sequence (Q9H0H5 whole entry): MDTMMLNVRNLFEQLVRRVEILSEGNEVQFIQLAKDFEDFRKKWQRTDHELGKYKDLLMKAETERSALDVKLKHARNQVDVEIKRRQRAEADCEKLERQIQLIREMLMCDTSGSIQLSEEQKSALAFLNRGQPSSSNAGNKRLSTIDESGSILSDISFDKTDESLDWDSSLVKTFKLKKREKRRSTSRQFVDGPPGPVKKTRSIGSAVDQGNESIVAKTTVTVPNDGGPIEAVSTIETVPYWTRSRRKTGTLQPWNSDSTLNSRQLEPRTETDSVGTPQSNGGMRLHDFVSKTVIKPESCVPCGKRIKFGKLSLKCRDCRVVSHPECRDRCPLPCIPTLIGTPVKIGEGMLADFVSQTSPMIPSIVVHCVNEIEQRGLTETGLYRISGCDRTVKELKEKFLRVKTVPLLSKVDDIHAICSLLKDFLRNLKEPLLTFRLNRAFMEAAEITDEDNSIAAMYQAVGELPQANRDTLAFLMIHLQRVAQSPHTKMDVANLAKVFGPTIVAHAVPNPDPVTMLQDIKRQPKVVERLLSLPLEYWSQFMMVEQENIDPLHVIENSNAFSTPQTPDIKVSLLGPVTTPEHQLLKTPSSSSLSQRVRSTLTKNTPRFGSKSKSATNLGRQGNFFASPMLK

Paired box protein Pax-8 = Paired box protein Pax-8 (Homo sapiens, UniProt Q06710); test: inhibitors of PAX8-driven TPO luciferase reporter, dose response, RMG-I cells, cherry-pick (AID 687027); assay type: functional, cell-based;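 note: luciferase reporter driven by Pax8 target thyroperoxidase promoter measured by SteadyGlo luminescence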
Sequence of Paired box protein Pax-8 (Q06710 whole entry): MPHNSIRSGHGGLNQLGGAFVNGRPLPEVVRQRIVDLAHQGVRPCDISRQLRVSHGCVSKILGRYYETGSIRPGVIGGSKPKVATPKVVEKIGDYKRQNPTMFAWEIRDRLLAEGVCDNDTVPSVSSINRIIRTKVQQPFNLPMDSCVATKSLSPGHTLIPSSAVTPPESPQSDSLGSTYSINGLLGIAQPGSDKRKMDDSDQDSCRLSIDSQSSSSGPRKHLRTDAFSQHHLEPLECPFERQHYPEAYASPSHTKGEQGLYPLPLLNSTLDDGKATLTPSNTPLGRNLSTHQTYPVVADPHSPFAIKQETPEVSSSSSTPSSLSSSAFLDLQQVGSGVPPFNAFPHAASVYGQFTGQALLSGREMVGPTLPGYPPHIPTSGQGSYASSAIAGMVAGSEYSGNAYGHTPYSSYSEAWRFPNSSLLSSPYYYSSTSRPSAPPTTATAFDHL

T3 sequence (P11940 whole entry): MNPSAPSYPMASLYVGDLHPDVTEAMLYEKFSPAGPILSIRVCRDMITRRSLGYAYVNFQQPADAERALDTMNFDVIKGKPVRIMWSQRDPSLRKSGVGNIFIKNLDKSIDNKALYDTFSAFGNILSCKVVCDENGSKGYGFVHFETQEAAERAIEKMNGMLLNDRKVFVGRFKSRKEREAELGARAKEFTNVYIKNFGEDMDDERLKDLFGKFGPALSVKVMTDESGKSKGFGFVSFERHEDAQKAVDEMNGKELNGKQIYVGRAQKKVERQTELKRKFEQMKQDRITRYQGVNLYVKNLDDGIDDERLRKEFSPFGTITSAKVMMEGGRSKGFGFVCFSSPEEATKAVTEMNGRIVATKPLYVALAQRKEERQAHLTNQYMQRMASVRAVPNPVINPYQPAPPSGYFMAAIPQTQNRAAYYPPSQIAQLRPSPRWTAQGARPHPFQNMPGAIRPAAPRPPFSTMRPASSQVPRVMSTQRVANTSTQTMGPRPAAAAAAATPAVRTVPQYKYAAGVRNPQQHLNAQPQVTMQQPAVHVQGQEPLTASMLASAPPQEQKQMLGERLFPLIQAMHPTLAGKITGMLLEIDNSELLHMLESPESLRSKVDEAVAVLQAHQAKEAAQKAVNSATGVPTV
Sequence of FAD-linked sulfhydryl oxidase ALR (P55789 whole entry, the tested form may be a part): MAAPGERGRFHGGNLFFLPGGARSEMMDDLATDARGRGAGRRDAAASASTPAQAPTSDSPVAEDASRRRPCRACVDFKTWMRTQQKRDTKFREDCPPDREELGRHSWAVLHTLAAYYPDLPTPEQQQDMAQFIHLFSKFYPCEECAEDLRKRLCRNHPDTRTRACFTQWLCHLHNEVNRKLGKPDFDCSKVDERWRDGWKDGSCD
Sequence of Induced myeloid leukemia cell differentiation protein Mcl-1 (Q07820 whole entry): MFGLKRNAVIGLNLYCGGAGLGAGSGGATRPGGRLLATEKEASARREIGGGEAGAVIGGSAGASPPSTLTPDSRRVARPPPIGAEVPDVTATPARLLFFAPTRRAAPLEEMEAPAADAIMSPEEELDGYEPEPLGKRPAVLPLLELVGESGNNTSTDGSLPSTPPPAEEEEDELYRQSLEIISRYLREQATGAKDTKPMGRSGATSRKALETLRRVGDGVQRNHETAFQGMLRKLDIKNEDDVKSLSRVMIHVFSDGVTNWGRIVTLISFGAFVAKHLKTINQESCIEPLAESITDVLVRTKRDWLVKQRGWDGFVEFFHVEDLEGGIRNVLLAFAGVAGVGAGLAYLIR

CC(=O)N1CCN=C1SCc1ccccc1F
AC50 [1]: 13.9 µM (active)

COc1ccc(C2C(C(=O)c3ccco3)=C(O)C(=O)N2c2nnc(C)s2)cc1OC (stereo not given)
EC50 [2]: > 300 µM (not active)
EC50 [3]: 297 µM (active)
IC50 [4]: > 66 µM (inactive)
IC50 [5]: 50.4 µM (inactive)

Cc1cc(O)nc(SCC(=O)Nc2ccccc2C#N)c1C#N
IC50 (Leucine aminopeptidase): 13.9 µM (active)

CC(=O)Nc1c(O)nc(SCC(=O)Nc2cccc(C)c2)[nH]c1=O
IC50 (Leucine aminopeptidase): 9.85 µM (active)

O=C(O)C1CC=CCC1C(=O)Nc1ccc2c(c1)OCCO2 (stereo not given)
IC50 (Leucine aminopeptidase): 13.4 µM (active)

CSc1cc(-c2ccccc2)n(Cc2c(Cl)cccc2Cl)c(=O)c1C#N
EC50 (BJ [6]): 5.96 µM (active)
EC50 (BJ [7]): 64.7 µM (inconclusive)
EC50 (BJ [8]): 2.86 µM (active)
EC50 [9]: 3.1 µM (active)

COC(=O)c1ccc(COC(=O)c2ccccn2)cc1
IC50 (cells): 26.6 µM (active)

CC(=O)c1sc2nc(-c3cccs3)ccc2c1N
EC50 [10]: > 120 µM (not active)
EC50 (H4): 33.2 µM (inconclusive)
IC50 [11]: 7.08 µM (not active)

O=C(Cc1ccc(Cl)cc1)NC(=S)Nc1ccccc1O
IC50 [4]: > 66 µM (inactive)
IC50 [5]: > 66 µM (inactive)
EC50 [12]: 5.99 µM (active)

O=[N+]([O-])c1c(O)nc(/C=C\c2ccc(O)cc2)nc1O
AC50 [1]: 4.4 µM (active)
IC50 [13]: 50.6 µM (active)

CN(C)c1ccc(CNC(=O)c2cc(S(=O)(=O)N3CCCC3)cn2C)cc1
AC50 [1]: 8.78 µM (active)

CCS(=O)(=O)N1Cc2ccccc2CC1C(=O)N1CCN(c2ccccc2)CC1 (stereo not given)
AC50 [1]: 12.1 µM (active)

C[C@@H]1CN([C@@H](C)CO)S(=O)(=O)c2ccc(C#Cc3ccc(F)cc3)cc2O[C@H]1CN(C)C(=O)NC1CCCCC1
AC50 (Paired box protein Pax-8): 7.93 µM (active)

c1csc(-c2nc3ccccn3c2NC2CCCCC2)c1
AC50 [1]: 0.678 µM (active)
